# Test results published in patent US20050215548A1 (Cyclacel Limited, priority 2002, published 2005).
# Read-outs that look alike come from different tables or passages of the source.
# Tests used:
# SJSA-1 = assay: 72-h MTT cytotoxicity assay, SJSA-1; assay type: cell-based; conditions: Homo sapiens, SJSA-1; 72-h MTT; Table 1; read-out: IC50 Anti-proliferative effect on cell line SJSA-1
# Protocol: (§1) The fluorescence polarisation competitive HDM2 binding assay described in Example 3 was used. Furthermore, the anti-proliferative potency of the compounds against three human tumour cell lines with different genetic make-up was also determined. […] The cell lines used were as follows: AGS, gastric adenocarcinoma, wild-type p53; H1299, large cell lung carcinoma, p53 null, low HDM2; SJSA-1, primitive multipotential bone sarcoma, wild-type p53, overexpressed HDM2.
# (§2) Representative bisarylsulfonamide compounds were tested on a panel of transformed and non-transformed human cell lines, using a standard 72-h MTT cytotoxicity assay [Haselsberger K et al, ibid].
# AGS = assay: 72-h MTT cytotoxicity assay, AGS; assay type: cell-based; conditions: Homo sapiens, 72-h MTT, Table 1, read-out: IC50 Anti-proliferative effect on cell line AGS
# Protocol: as §1, §2
# HDM2 = target: T1, HDM2 (Homo sapiens, UniProt Q00987); assay: Fluorescence polarisation competitive HDM2 binding assay
# T1 construct: Recombinant HDM2 (1.5 μg per well) in TBS-BSA buffer
# How it was run: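 Recombinant HDM2 (1.5 μg/well) was preincubated 5 min at room temperature with serially diluted compound in 50 mM Tris pH 7.4, 150 mM NaCl, 0.1% BSA, 5% DMSO final. Fluorescein-labelled p53 peptide (0.2 μM) was then added for 45 min. Polarisation was read at 485/520 nm and IC50 derived from dose-response curves.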
# [1] = test system: E2F transcription factors; assay: E2F reporter gene assay (A549-derived luciferase reporter cell line); assay type: cell-based; conditions: Homo sapiens
# Protocol: A similar system to the p53 reporter assay described above was used, with the exception that it was designed to be responsive to E2F transcription factors rather than p53. An A549-derived cell line stably transfected with an E2F response element and a luciferase reporter gene was created. The genetic expression cassette construct used was from Clontech (Mercury™ Cell Cycle Profiling System). Assays were carried out as described above.
# Representative bisarylsulfonamides were tested in the E2F gene reporter assay described in Example 6.
# H1299 = assay: 72-h MTT cytotoxicity assay, H1299; assay type: cell-based; conditions: Homo sapiens, NCI-H1299; 72-h MTT; Table 1; read-out: IC50 Anti-proliferative effect on cell line H 1299
# Protocol: as §1, §2
# p53 = p53 reporter gene assay (U2OS-derived luciferase reporter cell line); conditions: for Fold induction of luciferase activity: compared to basal luciferase activity, 16-h time point, at concentration of maximal induction; for Concentration (test compound concentration at which the p53 induction was maximal): p53 reporter, U2OS-derived cell line
# Protocol: A dual assay assessing both cell viability and p53 response was employed. A U2OS-derived cell line stably transfected with a p53 response element and a luciferase reporter gene was created. […] After seeding of cells into 96-well tissue culture plates, treatment with test compounds, and incubation for the desired duration, the cell proliferation reagent WST-1 (Roche Molecular Biochemicals) was used to determine cell viability. The Bright-Glo™ Luciferase Assay System (Promega) was used to measure luciferase activity. The data from the cell viability assay was used to normalise data from the luciferase assay.
# [2] = fluorescence polarisation format, Table 1, read-out: IC50 In vitro competitive HDM2 binding assay
# [3] = after 3-h treatment with test compounds, read-out: IC50 E2F reporter, Non-synchronised cells
# [4] = after 3-h treatment, synchronisation with 0.3 mM mimosine for 24 h, followed by wash-out, read-out: IC50 E2F reporter, Synchronised cells
# [5] = fluorescence polarisation assay, Table 3, read-out: In vitro competitive HDM2 binding assay IC50
# T1 sequence (Q00987 whole entry): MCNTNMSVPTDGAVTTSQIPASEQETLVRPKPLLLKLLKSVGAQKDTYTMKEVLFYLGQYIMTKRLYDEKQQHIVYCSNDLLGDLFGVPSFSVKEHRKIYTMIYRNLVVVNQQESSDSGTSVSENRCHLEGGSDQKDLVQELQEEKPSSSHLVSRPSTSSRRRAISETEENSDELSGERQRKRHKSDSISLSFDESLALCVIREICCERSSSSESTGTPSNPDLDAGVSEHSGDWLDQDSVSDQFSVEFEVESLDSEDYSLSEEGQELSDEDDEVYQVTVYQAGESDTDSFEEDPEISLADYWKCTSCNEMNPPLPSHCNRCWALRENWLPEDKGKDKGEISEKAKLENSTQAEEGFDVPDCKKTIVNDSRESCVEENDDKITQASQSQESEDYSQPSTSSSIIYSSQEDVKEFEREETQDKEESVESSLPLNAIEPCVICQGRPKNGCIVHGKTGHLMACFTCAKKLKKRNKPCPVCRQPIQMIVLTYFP
SMILES,IC50 (SJSA-1),IC50 (AGS),IC50 (HDM2; [2]),"IC50 [1, 3]","IC50 [1, 4]",IC50 (H1299),IC50 (HDM2; [5]),Fold induction of luciferase activity (p53),Concentration (test compound concentration at which the p53 induction was maximal) (p53)
"O=[N+]([O-])c1cc(S(=O)(=O)Nc2ccc(O)cc2)sc1Cl [Compound 5, 5-Chloro-4-nitrothiophene-2-sulfonic acid (4-hydroxyphenyl)amide]",24 ± 2.1 µM,2.2 ± 0.6 µM,105 ± 26 µM,73.3 ± 33.4 µM,72 ± 31 µM,8.7 ± 2.2 µM,–,–,–
"O=[N+]([O-])c1cc(S(=O)(=O)Nc2ccc(Cl)cc2)ccc1Cl [Compound 38, 4-Chloro-N-(4-chlorophenyl)-3-nitro-benzenesulfonamide]",22 ± 4 µM,16 ± 4 µM,232 ± 13 µM,–,–,11 ± 4 µM,231 ± 13 µM,4 fold,13 µM
"O=[N+]([O-])c1cc(S(=O)(=O)Nc2cc(Cl)cc(Cl)c2)sc1Cl [Compound 39, 5-Chloro-4-nitrothiophene-2-sulfonic acid (3,5-dichlorophenyl)-amide]",27.2 ± 0.4 µM,4.9 ± 1.6 µM,46.1 ± 3.4 µM,90 µM,–,12.1 ± 4 µM,46.1 ± 3.4 µM,64 fold,15 µM
"O=[N+]([O-])c1cc(S(=O)(=O)Nc2cc(F)cc(F)c2)sc1Cl [Compound 40, 5-Chloro-4-nitrothiophene-2-sulfonic acid (3,5-difluorophenyl)-amide]",26.4 ± 0.2 µM,4 ± 0.3 µM,59.6 ± 10.5 µM,99.5 µM,–,10.6 ± 0.4 µM,59.6 ± 10.9 µM,68 fold,13 µM
"O=S(=O)(Nc1ccc(C(F)(F)F)cc1)c1cnc(Cl)c(Br)c1 [Compound 41, 5-Bromo-6-chloropyridine-3-sulfonic acid (4-trifluoromethylphenyl)amide]",53 ± 3 µM,31 ± 2 µM,258 ± 12 µM,76.6 µM,84 µM,28 µM,–,–,–
"O=[N+]([O-])c1cc(S(=O)(=O)NCc2ccc(F)cc2)sc1Cl [Compound 45, 5-Chloro-4-nitrothiophene-2-sulfonic acid 4-fluorobenzylamide]",11.5 ± 3 µM,7.5 ± 4.4 µM,16 ± 3.7 µM,–,–,11.1 ± 3.1 µM,16 ± 3.7 µM,67 fold,15 µM
"O=[N+]([O-])c1cc(S(=O)(=O)NCc2ccc(C(F)(F)F)cc2)sc1Cl [Compound 46, 5-Chloro-4-nitrothiophene-2-sulfonic acid 4-trifluoromethylbenzylamide]",4.4 ± 1.1 µM,1.3 ± 0.5 µM,11.1 ± 1.7 µM,25.5 ± 3.1 µM,–,3.4 ± 0.5 µM,11.1 ± 1.7 µM,55 fold,6 µM
"O=[N+]([O-])c1cc(S(=O)(=O)NCCc2c[nH]c3ccccc23)sc1Cl [Compound 48, 5-Chloro-4-nitrothiophene-2-sulfonic acid [2-(1H-indol-3-yl)-ethyl]amide]",3.1 ± 1 µM,2.6 ± 1.4 µM,25.3 ± 4.6 µM,31.3 ± 2.6 µM,–,3.6 ± 0.9 µM,25.3 ± 4.6 µM,43.5 fold,5.5 µM
"CN(c1ccc(C(F)(F)F)cc1)S(=O)(=O)c1cc([N+](=O)[O-])c(Cl)s1 [Compound 50, 5-Chloro-4-nitrothiophene-2-sulfonic acid methyl-(4-trifluoromethylphenyl)amide]",35.4 ± 11.5 µM,30.3 ± 0.3 µM,7.3 ± 0.6 µM,–,–,34.7 ± 6.1 µM,7.3 ± 0.6 µM,21 fold,39 µM
"O=[N+]([O-])c1cc(S(=O)(=O)NCc2cc(Cl)cc(Cl)c2)sc1Cl [Compound 54, 5-Chloro-4-nitro-thiophene-2-sulfonic acid 3,5-dichloro-benzylamide]",12 ± 0.4 µM,5.6 ± 0.2 µM,20.2 ± 1.3 µM,–,–,9.7 ± 2.9 µM,20.2 ± 1.3 µM,90 fold,10 µM
"O=[N+]([O-])c1cc(S(=O)(=O)NCc2cc(F)cc(F)c2)sc1Cl [Compound 55, 5-Chloro-4-nitro-thiophene-2-sulfonic acid 3,5-difluoro-benzylamide]",13.3 ± 2.1 µM,7 µM,27 ± 10.1 µM,–,–,9.3 ± 2.5 µM,27 ± 10.1 µM,53 fold,10 µM
"CC(NS(=O)(=O)c1cc([N+](=O)[O-])c(Cl)s1)c1ccc(F)cc1 (stereo not shown) [Compound 57, 5-Chloro-4-nitro-thiophene-2-sulfonic acid [1-(4-fluoro-phenyl)-ethyl]-amide]",5.9 ± 0.2 µM,1.7 ± 0.3 µM,31.1 ± 5.6 µM,–,–,2.7 ± 0.6 µM,31.1 ± 5.6 µM,25 fold,7 µM
"O=[N+]([O-])c1cc(S(=O)(=O)NCCc2c[nH]c3cc(Cl)ccc23)sc1Cl [Compound 60, 5-Chloro-4-nitro-thiophene-2-sulfonic acid [2-(6-chloro-1H-indol-3-yl)-ethyl]-amide]",–,–,29 ± 6 µM,29.2 ± 6.8 µM,–,–,29 ± 6 µM,48 fold,7.5 µM
"COc1ccc(NS(=O)(=O)c2cc([N+](=O)[O-])c(Cl)s2)cc1 [Compound 61, 5-Chloro-4-nitro-thiophene-2-sulfonic acid (4-methoxy-phenyl)-amide]",2.8 ± 0.2 µM,1.8 ± 0.4 µM,45 ± 14 µM,34.6 ± 22.9 µM,–,2.7 ± 0.4 µM,45 ± 14 µM,34 fold,4.8 µM
"Cc1ccc(NS(=O)(=O)c2cc([N+](=O)[O-])c(Cl)s2)cc1 [Compound 63, 5-Chloro-4-nitro-thiophene-2-sulfonic acid p-tolylamide]",5.7 ± 1.6 µM,1.7 ± 0.6 µM,35 ± 8 µM,–,–,3.9 ± 0.9 µM,35 ± 8 µM,95 fold,6.4 µM
"O=[N+]([O-])c1cc(S(=O)(=O)NCc2ccccc2)sc1Cl [Compound 64, 5-Chloro-4-nitro-thiophene-2-sulfonic acid benzylamide]",7.3 ± 1.7 µM,3.6 ± 0.2 µM,18 µM,44.6 ± 2.3 µM,–,6.3 ± 2.1 µM,–,–,–
"O=[N+]([O-])c1cc(S(=O)(=O)N(Cc2ccccc2)c2ccc(Cl)cc2)sc1Cl [Compound 65, 5-Chloro-4-nitro-thiophene-2-sulfonic acid benzyl-(4-chloro-phenyl)-amide]",11.1 ± 6.7 µM,5.2 ± 2.2 µM,7.4 ± 1 µM,–,–,10.8 ± 4.3 µM,7.4 ± 1 µM,74 fold,10 µM
"COc1ccc(N(Cc2ccccc2)S(=O)(=O)c2cc([N+](=O)[O-])c(Cl)s2)cc1 [Compound 66, 5-Chloro-4-nitro-thiophene-2-sulfonic acid benzyl-(4-methoxy-phenyl)-amide]",3.9 ± 1.3 µM,2.4 ± 0.2 µM,14.7 ± 0.9 µM,–,–,3.9 ± 0.5 µM,14.7 ± 0.9 µM,65 fold,4.2 µM
"Cc1ccc(S(=O)(=O)NCCc2c[nH]c3ccc(Cl)cc23)cc1[N+](=O)[O-] [Compound 82, N-[2-(5-Chloro-1H-indol-3-yl)-ethyl]-4-methyl-3-nitro-benzenesulfonamide]",65 ± 4 µM,50 µM,338 ± 111 µM,–,–,49 µM,–,–,–
"O=[N+]([O-])c1ccc(NS(=O)(=O)c2cc(C(F)(F)F)cc(C(F)(F)F)c2)cc1Cl [Compound 105, N-(3-Chloro-4-nitro-phenyl)-3,5-bis-trifluoromethyl-benzenesulfonamide]",37 ± 18 µM,24 ± 3 µM,153 ± 18 µM,–,–,25 ± 1 µM,–,–,–
